Measurements taken from ChEMBL document CHEMBL1201862, “PubChem BioAssay data set” (2004).
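These data come from cells grown in 96-well plates and exposed to compound for 48 hours at five concentrations. GI50 = concentration required for 50% inhibition of growth.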 Calls of active or inactive are those of the source. Rule as the data show it: active = GI50 up to about 1.1 µM and inactive = higher.

Assays:
Assay in all cases: NCI-60 cell line screen, 48 h
TK-10 = test system: TK-10
UACC-257 = test system: UACC-257
T47D = test system: T47D
SW-620 = test system: SW-620
KM12 = test system: KM12
SF-268 = test system: SF-268
U-251 = test system: U-251
RPMI-8226 = test system: RPMI-8226
A549 = test system: A549
MCF7 = test system: MCF7
M14 = test system: M14
NCI/ADR-RES = test system: NCI/ADR-RES
HT-29 = test system: HT-29
COLO 205 = test system: COLO 205
OVCAR-3 = test system: OVCAR-3
A498 = test system: A498
786-0 = test system: 786-0
HCC 2998 = test system: HCC 2998
CCRF-CEM = test system: CCRF-CEM
IGROV-1 = test system: IGROV-1
MDA-MB-435 = test system: MDA-MB-435
LOX IMVI = test system: LOX IMVI
HCT-116 = test system: HCT-116
HCT-15 = test system: HCT-15
UO-31 = test system: UO-31
NCI-H460 = test system: NCI-H460
SK-OV-3 = test system: SK-OV-3
MOLT-4 = test system: MOLT-4
PC-3 = test system: PC-3
BT-549 = test system: BT-549
Hs-578T = test system: Hs-578T
NCI-H522 = test system: NCI-H522
SK-MEL-2 = test system: SK-MEL-2
HOP-92 = test system: HOP-92
OVCAR-4 = test system: OVCAR-4
K562 = test system: K562
SK-MEL-28 = test system: SK-MEL-28
OVCAR-5 = test system: OVCAR-5
UACC-62 = test system: UACC-62
RXF 393 = test system: RXF 393
HL-60 = test system: HL-60
SNB-19 = test system: SNB-19
NCI-H226 = test system: NCI-H226
SK-MEL-5 = test system: SK-MEL-5
MDA-N = test system: MDA-N
SNB-75 = test system: SNB-75
SF-295 = test system: SF-295
CAKI-1 = test system: CAKI-1
EKVX = test system: EKVX
OVCAR-8 = test system: OVCAR-8
ACHN = test system: ACHN
NCI-H23 = test system: NCI-H23
MDA-MB-231 = test system: MDA-MB-231
SN12C = test system: SN12C
SR = test system: SR
HOP-62 = test system: HOP-62
Malme-3M = test system: Malme-3M
SF-539 = test system: SF-539

In the case of `O=C(Nc1cccc2nsnc12)c1cc2c(cc1Cl)Sc1nccn1S2(=O)=O`, the GI50 (TK-10) is reported as 6.01 µM (inactive), the GI50 (UACC-257) is reported as 1.81 µM (inactive) and the GI50 (T47D) is reported as 2.24 µM (inactive). For the same compound, the GI50 (SW-620) was 10.5 µM (inactive), the GI50 (KM12) was 2.08 µM (inactive) and the GI50 (SF-268) was 3.62 µM (inactive). For the same compound, the GI50 (U-251) was 5.66 µM (inactive), the GI50 (RPMI-8226) was 2.26 µM (inactive) and the GI50 (A549) was 17.3 µM (inactive). For the same compound, the GI50 (MCF7) was 1.73 µM (inactive), the GI50 (M14) was 18.9 µM (inactive) and the GI50 (NCI/ADR-RES) was 17.7 µM (inactive). The GI50 (HT-29) was 2.74 µM (inactive), the GI50 (COLO 205) was 18 µM (inactive) and the GI50 (OVCAR-3) was 1.68 µM (inactive). For the same compound, the GI50 (A498) was 13.6 µM (inactive), the GI50 (786-0) was 15.9 µM (inactive) and the GI50 (HCC 2998) was 3.38 µM (inactive). For the same compound, the GI50 (CCRF-CEM) was 3.28 µM (inactive), the GI50 (IGROV-1) was 11.5 µM (inactive) and the GI50 (MDA-MB-435) was 9.62 µM (inactive). The GI50 (LOX IMVI) was 8.43 µM (inactive), the GI50 (HCT-116) was 2.77 µM (inactive) and the GI50 (HCT-15) was 5.19 µM. The GI50 (UO-31) was 2.07 µM (inactive), the GI50 (NCI-H460) was 2.4 µM (inactive) and the GI50 (SK-OV-3) was 54.5 µM (inactive). The GI50 (MOLT-4) was 2.95 µM (inactive), the GI50 (PC-3) was 1.9 µM (inactive) and the GI50 (BT-549) was 15.1 µM (inactive). The GI50 (Hs-578T) was 4.25 µM (inactive), the GI50 (NCI-H522) was 8.2 µM (inactive) and the GI50 (SK-MEL-2) was 11.2 µM (inactive). For the same compound, the GI50 (HOP-92) was 4.4 µM (inactive), the GI50 (OVCAR-4) was 3.31 µM (inactive) and the GI50 (K562) was 3.98 µM (inactive). The GI50 (SK-MEL-28) was 3.01 µM (inactive), the GI50 (OVCAR-5) was 32.4 µM (inactive) and the GI50 (UACC-62) was 5.33 µM (inactive). For the same compound, the GI50 (RXF 393) was 4.6 µM (inactive), the GI50 (HL-60) was 1.85 µM (inactive) and the GI50 (SNB-19) was 12.1 µM (inactive). For the same compound, the GI50 (NCI-H226) was 25.9 µM (inactive), the GI50 (SK-MEL-5) was 17.9 µM (inactive) and the GI50 (MDA-N) was 14.1 µM (inactive). For the same compound, the GI50 (SNB-75) was 8.02 µM (inactive), the GI50 (SF-295) was 14.1 µM (inactive) and the GI50 (CAKI-1) was 9.55 µM (inactive). The GI50 (EKVX) was 5.22 µM (inactive), the GI50 (OVCAR-8) was 2.73 µM (inactive) and the GI50 (ACHN) was 12.7 µM (inactive). For the same compound, the GI50 (NCI-H23) was 11.2 µM (inactive), the GI50 (MDA-MB-231) was 8.26 µM (inactive) and the GI50 (SN12C) was 13.6 µM (inactive). The GI50 (SR) was 2.73 µM (inactive), the GI50 (HOP-62) was 1.78 µM (inactive) and the GI50 (Malme-3M) was 74.5 µM (inactive). The GI50 (SF-539) was 3.52 µM (inactive).
With `CN1C(=O)C2C(=O)N(Cc3ccccc3)CC(=O)N2c2cccnc21` (configuration not stated) the GI50 (TK-10) was > 100 µM (inactive), the GI50 (UACC-257) was > 100 µM (inactive) and the GI50 (T47D) was > 100 µM (inactive). For the same compound, the GI50 (KM12) was > 100 µM (inactive), the GI50 (SF-268) was > 100 µM (inactive) and the GI50 (U-251) was > 100 µM (inactive). The GI50 (RPMI-8226) was > 100 µM (inactive), the GI50 (A549) was > 100 µM (inactive) and the GI50 (MCF7) was > 100 µM (inactive). For the same compound, the GI50 (M14) was > 100 µM (inactive), the GI50 (NCI/ADR-RES) was > 100 µM (inactive) and the GI50 (HT-29) was > 100 µM (inactive). For the same compound, the GI50 (COLO 205) was > 100 µM (inactive), the GI50 (OVCAR-3) was > 100 µM (inactive) and the GI50 (A498) was > 100 µM (inactive). For the same compound, the GI50 (786-0) was > 100 µM (inactive), the GI50 (CCRF-CEM) was > 100 µM (inactive) and the GI50 (IGROV-1) was > 100 µM (inactive). For the same compound, the GI50 (MDA-MB-435) was > 100 µM (inactive), the GI50 (LOX IMVI) was > 100 µM (inactive) and the GI50 (HCT-116) was > 100 µM (inactive). The GI50 (HCT-15) was > 100 µM, the GI50 (UO-31) was > 100 µM (inactive) and the GI50 (NCI-H460) was > 100 µM (inactive). The GI50 (SK-OV-3) was > 100 µM (inactive), the GI50 (MOLT-4) was > 100 µM (inactive) and the GI50 (PC-3) was > 100 µM (inactive). For the same compound, the GI50 (BT-549) was > 100 µM (inactive), the GI50 (Hs-578T) was > 100 µM (inactive) and the GI50 (NCI-H522) was > 100 µM (inactive). The GI50 (SK-MEL-2) was > 100 µM (inactive), the GI50 (HOP-92) was > 100 µM (inactive) and the GI50 (OVCAR-4) was > 100 µM (inactive). The GI50 (K562) was > 100 µM (inactive), the GI50 (OVCAR-5) was > 100 µM (inactive) and the GI50 (UACC-62) was > 100 µM (inactive). The GI50 (RXF 393) was > 100 µM (inactive), the GI50 (HL-60) was > 100 µM (inactive) and the GI50 (SNB-19) was > 100 µM (inactive). For the same compound, the GI50 (NCI-H226) was > 100 µM (inactive), the GI50 (SK-MEL-5) was > 100 µM (inactive) and the GI50 (MDA-N) was > 100 µM (inactive). For the same compound, the GI50 (SNB-75) was > 100 µM (inactive), the GI50 (SF-295) was > 100 µM (inactive) and the GI50 (CAKI-1) was > 100 µM (inactive). The GI50 (EKVX) was > 100 µM (inactive), the GI50 (OVCAR-8) was > 100 µM (inactive) and the GI50 (ACHN) was > 100 µM (inactive). The GI50 (NCI-H23) was > 100 µM (inactive), the GI50 (MDA-MB-231) was > 100 µM (inactive) and the GI50 (SR) was > 100 µM (inactive). The GI50 (HOP-62) was > 100 µM (inactive), the GI50 (Malme-3M) was 70.5 µM (inactive) and the GI50 (SF-539) was > 100 µM (inactive).
